From ChEMBL document CHEMBL3885861, “Open TG-GATES”

Species on record: Rattus norvegicus
Test: Open TG-GATES - Regimen: Daily Repeat
Type: toxicity, organism-based, Sprague-Dawley
Parameters: regimen Daily Repeat, gender Male, age 6 weeks
Details: in vivo, po, 3 mg/kg, […], route gavage, dose level Low; for KIDNEY_L / KIDNEY_R / KIDNEY_TOTAL: tissue Kidney; for LIVER: tissue Liver; for A/G / ALP / ALT / AST / BUN / CRE / Ca / Cl / DBIL / GLC / IP / K / LDH / Na / PL / RALB / TBIL / TC / TG / TP / gamma-GTP: tissue Plasma

## Cn1cnc([N+](=O)[O-])c1Sc1ncnc2nc[nH]c12 [AZATHIOPRINE]
Tissue Blood, time 28 day
  Lym: 84.6%
  MCH: 19.4 pg
  MCHC: 34.4%
  MCV: 56.4 fL
  Mono: 1.6%
  Neu: 12%
  PT: 16.5 s
  Plat: 116.9 x10_4/uL
  RBC: 749.8 x10_4/ul
  Ret: 2.7%
  WBC: 116.8 x10_2/uL
Time 7 day
  KIDNEY_L: 1 g
  KIDNEY_R: 1 g
  KIDNEY_TOTAL: 2 g
  LIVER: 10.6 g
  A/G: 1.2
  ALP: 1762.2 IU/L
  ALT: 44.2 IU/L
  AST: 71.2 IU/L
  BUN: 19.8 mg/dL
  CRE: 0.1 mg/dL
  Ca: 10.5 mg/dL
  Cl: 107.6 meq/L
  DBIL: 0 mg/dL
  GLC: 201 mg/dL
  IP: 7 mg/dL
  K: 4.1 meq/L
  LDH: 232 IU/L
  Na: 143.2 meq/L
  PL: 151.2 mg/dL
  RALB: 3.1 g/dL
  TBIL: 0.006 mg/dL
  TC: 74.8 mg/dL
  TG: 117.4 mg/dL
  TP: 5.7 g/dL
  gamma-GTP: 1.2 IU/L
Time 14 day
  KIDNEY_L: 1.1 g
  KIDNEY_R: 1.1 g
  KIDNEY_TOTAL: 2.2 g
  LIVER: 11.4 g
  A/G: 1.1
  ALP: 1472 IU/L
  ALT: 34.6 IU/L
  AST: 61.4 IU/L
  BUN: 17.4 mg/dL
  CRE: 0.2 mg/dL
  Ca: 10.7 mg/dL
  Cl: 108 meq/L
  DBIL: 0 mg/dL
  GLC: 185.4 mg/dL
  IP: 6.1 mg/dL
  K: 4.2 meq/L
  LDH: 145 IU/L
  Na: 143.8 meq/L
  PL: 143.2 mg/dL
  RALB: 3.1 g/dL
  TBIL: 0.006 mg/dL
  TC: 74.2 mg/dL
  TG: 116.2 mg/dL
  TP: 5.9 g/dL
  gamma-GTP: 1 IU/L
Time 28 day
  KIDNEY_L: 1.3 g
  KIDNEY_R: 1.3 g
  KIDNEY_TOTAL: 2.5 g
  LIVER: 14.1 g
  A/G: 1.1
  ALP: 1129.8 IU/L
  ALT: 46.2 IU/L
  AST: 71.2 IU/L
  BUN: 19.2 mg/dL
  CRE: 0.2 mg/dL
  Ca: 10.6 mg/dL
  Cl: 107.8 meq/L
  DBIL: 0.002 mg/dL
  GLC: 185 mg/dL
  IP: 5.6 mg/dL
  K: 3.9 meq/L
  LDH: 181 IU/L
  Na: 141.8 meq/L
  PL: 156.8 mg/dL
  RALB: 3.2 g/dL
  TBIL: 0.01 mg/dL
  TC: 79 mg/dL
  TG: 110.6 mg/dL
  TP: 6.1 g/dL
  gamma-GTP: 1.2 IU/L
